Results on ten compounds are retold here after patent EP4603477A1, “INHIBITORS OF THE CORONAVIRUS ACCESSORY PROTEIN ORF9B” (Consejo Superior De Investigaciones Científicas, priority 2024, dated 2025).

The term logP denotes a log measure of how a compound divides between an organic and an aqueous phase. A lower logP goes with lower lipophilicity.

In one data set the test system is THP-1. ORF9b cells. In kind it is cell-based. Particulars: 10 ng/mL interferon-β1 4 h, inhibitor 1 µM 1 h.
For data set [1], the system named is A549.ORF9b cells. In words: Fluorescence microscopy, co-localization of ORF9b and mitochondria. The data set is classed as cell-based.
For data set [2], the target named is T1, Recombinant SARS-CoV-2 GST-ORF9b protein (Severe acute respiratory syndrome coronavirus 2, UniProt P0DTD2).
T1 construct: purchased BPS Bioscience
T1 sequence (P0DTD2 whole entry): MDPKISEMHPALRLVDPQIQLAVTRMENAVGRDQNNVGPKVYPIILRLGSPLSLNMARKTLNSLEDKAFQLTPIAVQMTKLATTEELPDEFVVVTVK
In words: Surface plasmon resonance, ORF9b-ORF9b homotypic interaction. The data set is classed as binding. Particulars: mobile-phase GST-ORF9b pre-incubated with 5 µM compound. On the technique in general: Surface plasmon resonance follows binding to a sensor surface in real time, without labels.

Another data set has as its system A549.ORF9b. In kind it is cell-based. Particulars: A549.ORF9b cells; 10 ng/mL interferon-β1 4 h, inhibitor 1 µM 1 h.
Another data set has as its system THP-1.ORF9b cells. In kind it is cell-based.
For data set [3], the system named is A549.ORF9b cells. In kind it is cell-based.
The test system of another data set is A549wt cells. In kind it is cell-based. Particulars: both without and with LPS+ATP, MCC950 for the last 3 h.
[4] abbreviates: THP-1 monocyte-macrophage cells, low micromolar concentrations (Fig. 9B).
[5] abbreviates: A549 lung epithelial cells, low micromolar concentrations (Fig. 9A).

Read-outs that look alike come from different tables or passages of the source.

Consider `Nc1ccc(F)c(NC(=O)Cc2ccccc2)c1` [Compound 1], for which the “restoration of IFN-β induced expression of OAS3 and ISG15 mitigated by ORF9b” value (from here on “restoration”) in the data set with THP-1. ORF9b cells and in the data set on A549.ORF9b was “largely restored” throughout. Further, the “mitochondrial eviction of ORF9b” value with A549.ORF9b cells [1] (2.5 µM, 4 h (Fig. 8)) was “causes mitochondrial eviction”; with A549.ORF9b cells [1] (low micromolar concentrations), “rapid and remarkable partial eviction”. The logP in “physchem” was 2.14. The “Binding of GST-ORF9b to immobilized GST-ORF9b” value in data set [2] was “significantly inhibited”. In addition, the “inhibition of ORF9b-induced caspase-1 activation” value in the data set with THP-1.ORF9b cells (THP-1.ORF9b cells) and with A549.ORF9b cells [3] (A549.ORF9b cells) was “significantly inhibited” each time. Also, the “inhibition of the activation of caspase-1 induced by ORF9b” value (from here on “inhibition of the activation … by ORF9b”) in the data set on THP-1.ORF9b cells (THP-1.ORF9b cells, 5 µM, 3 h (Fig. 7)) is listed as “inhibits”; in the data set on A549.ORF9b cells [3] (A549.ORF9b cells, 5 µM, 3 h (Fig. 6)), “inhibits”.

Turning to `Nc1ccc(F)c(NC(=O)c2cccc3ccccc23)c1` [Compound 2, N-(5-Amino-2-fluorophenyl)-1-naphthamide], the “restoration” value in the data set on THP-1. ORF9b cells and in the data set with A549.ORF9b was “largely restored” each time. Moreover, the “mitochondrial eviction of ORF9b” value in the data set on A549.ORF9b cells [1] (5 µM, 4 h (Fig. 11)) was “induce mitochondrial eviction”; in the data set on A549.ORF9b cells [1] (low micromolar concentrations) it was “capable of causing mitochondrial eviction”. The same compound displayed a logP in “physchem” of 3.19. Also, the “inhibition of ORF9b-induced caspase-1 activation” value in the data set on THP-1.ORF9b cells (THP-1.ORF9b cells) and with A549.ORF9b cells [3] (A549.ORF9b cells) was “inhibited” each time. In addition, the “inhibition of the activation … by ORF9b” value in the data set on THP-1.ORF9b cells (setting [4]) and in the data set with A549.ORF9b cells [3] (setting [5]) was “inhibit” each time.

For the compound `Cc1ccc(N)c(NC(=O)Cc2ccc(F)cc2)c1` [Compound 3, N-(2-Amino-5-methylphenyl)-2-(4-fluorophenyl)acetamide], the “mitochondrial eviction of ORF9b” value in the data set with A549.ORF9b cells [1] (low micromolar concentrations) was “did not cause mitochondrial eviction”. The logP in the data set “physchem” amounted to 2.63. The “inhibition of ORF9b-induced caspase-1 activation” value with THP-1.ORF9b cells (THP-1.ORF9b cells) and in the data set on A549.ORF9b cells [3] (A549.ORF9b cells) was “much lower or no” throughout.

For `COc1ccc(CC(=O)Nc2cc(N)ccc2F)cc1` [Compound 4, N-(5-Amino-2-fluorophenyl)-2-(4-methoxyphenyl)acetamide], the logP in “physchem” was determined as 2.01. Further, the “inhibition of ORF9b-induced caspase-1 activation” value in the data set with THP-1.ORF9b cells (THP-1.ORF9b cells) and in the data set with A549.ORF9b cells [3] (A549.ORF9b cells) was “inhibited” each time. In addition, the “inhibition of the activation … by ORF9b” value in the data set on THP-1.ORF9b cells (setting [4]) and in the data set with A549.ORF9b cells [3] (setting [5]) was “inhibit” each time.

Take `Nc1ccc(F)c(NC(=O)Cc2ccc(Cl)cc2)c1` [Compound 5, N-(5-Amino-2-fluorophenyl)-2-(4-chlorophenyl)acetamide]: the logP in the data set “physchem” is 2.7. The “inhibition of ORF9b-induced caspase-1 activation” value in the data set with THP-1.ORF9b cells (THP-1.ORF9b cells) and in the data set with A549.ORF9b cells [3] (A549.ORF9b cells) was “inhibited” each time. The “inhibition of the activation … by ORF9b” value in the data set on THP-1.ORF9b cells (setting [4]) and with A549.ORF9b cells [3] (setting [5]) was “inhibit” each time.

In the case of `O=C(Cc1ccc(Cl)cc1)Nc1cc([N+](=O)[O-])ccc1F` [Compound 6, 2-(4-Chlorophenyl)-N-(2-fluoro-5-nitrophenyl)acetamide], the “restoration” value in the data set on THP-1. ORF9b cells and in the data set with A549.ORF9b was “largely restored” each time. For the same compound, the “mitochondrial eviction of ORF9b” value with A549.ORF9b cells [1] (5 µM, 4 h (Fig. 11)) is “induce mitochondrial eviction”; with A549.ORF9b cells [1] (low micromolar concentrations), “capable of causing mitochondrial eviction”. This compound also yielded a logP in “physchem” of 3.47. The “inhibition of ORF9b-induced caspase-1 activation” value in the data set on THP-1.ORF9b cells (THP-1.ORF9b cells) and in the data set with A549.ORF9b cells [3] (A549.ORF9b cells) was “inhibited” each time. Also, the “inhibition of the activation … by ORF9b” value in the data set with THP-1.ORF9b cells (setting [4]) and in the data set on A549.ORF9b cells [3] (setting [5]) was “inhibit” throughout.

In the case of `COc1ccc(CC(=O)Nc2cc([N+](=O)[O-])ccc2F)cc1` [Compound 7, N-(2-Fluoro-5-nitrophenyl)-2-(4-methoxyphenyl)acetamide], the logP in the data set “physchem” came out at 2.98. For the same compound, the “inhibition of ORF9b-induced caspase-1 activation” value in the data set on THP-1.ORF9b cells (THP-1.ORF9b cells) and in the data set with A549.ORF9b cells [3] (A549.ORF9b cells) was “inhibited” throughout. In addition, the “inhibition of the activation … by ORF9b” value with THP-1.ORF9b cells (setting [4]) and in the data set on A549.ORF9b cells [3] (setting [5]) was “inhibit” in each case.

For the compound `Cc1ccc([N+](=O)[O-])c(NC(=O)Cc2ccc(F)cc2)c1` [Compound 8, N-(2-Nitro-5-methylphenyl)-2-(4-fluorophenyl)acetamide], the “mitochondrial eviction of ORF9b” value in the data set with A549.ORF9b cells [1] (low micromolar concentrations) is reported as “did not cause mitochondrial eviction”. Moreover, in the data set “physchem”, the logP amounted to 3.27. Further, the “inhibition of ORF9b-induced caspase-1 activation” value in the data set with THP-1.ORF9b cells (THP-1.ORF9b cells) and with A549.ORF9b cells [3] (A549.ORF9b cells) was “much lower or no” in each case.

Compound `O=C(Cc1ccccc1)Nc1cc([N+](=O)[O-])ccc1F` [Compound 9, N-(2-Fluoro-5-nitrophenyl)-2-phenylacetamide] had a logP in the data set “physchem” of 2.85.

For `CC(C)(O)c1coc(S(=O)(=O)NC(=O)Nc2c3c(cc4c2CCC4)CCC3)c1` [MCC950, reference compound], the “induction of caspase-1 activation by SARS-CoV-2 accessory proteins” value in the data set on A549wt cells is “abolished”.
